The target in this assay is T1, human TLR7 (Homo sapiens, UniProt Q9NYK1).
T1 sequence (Q9NYK1 27-1049): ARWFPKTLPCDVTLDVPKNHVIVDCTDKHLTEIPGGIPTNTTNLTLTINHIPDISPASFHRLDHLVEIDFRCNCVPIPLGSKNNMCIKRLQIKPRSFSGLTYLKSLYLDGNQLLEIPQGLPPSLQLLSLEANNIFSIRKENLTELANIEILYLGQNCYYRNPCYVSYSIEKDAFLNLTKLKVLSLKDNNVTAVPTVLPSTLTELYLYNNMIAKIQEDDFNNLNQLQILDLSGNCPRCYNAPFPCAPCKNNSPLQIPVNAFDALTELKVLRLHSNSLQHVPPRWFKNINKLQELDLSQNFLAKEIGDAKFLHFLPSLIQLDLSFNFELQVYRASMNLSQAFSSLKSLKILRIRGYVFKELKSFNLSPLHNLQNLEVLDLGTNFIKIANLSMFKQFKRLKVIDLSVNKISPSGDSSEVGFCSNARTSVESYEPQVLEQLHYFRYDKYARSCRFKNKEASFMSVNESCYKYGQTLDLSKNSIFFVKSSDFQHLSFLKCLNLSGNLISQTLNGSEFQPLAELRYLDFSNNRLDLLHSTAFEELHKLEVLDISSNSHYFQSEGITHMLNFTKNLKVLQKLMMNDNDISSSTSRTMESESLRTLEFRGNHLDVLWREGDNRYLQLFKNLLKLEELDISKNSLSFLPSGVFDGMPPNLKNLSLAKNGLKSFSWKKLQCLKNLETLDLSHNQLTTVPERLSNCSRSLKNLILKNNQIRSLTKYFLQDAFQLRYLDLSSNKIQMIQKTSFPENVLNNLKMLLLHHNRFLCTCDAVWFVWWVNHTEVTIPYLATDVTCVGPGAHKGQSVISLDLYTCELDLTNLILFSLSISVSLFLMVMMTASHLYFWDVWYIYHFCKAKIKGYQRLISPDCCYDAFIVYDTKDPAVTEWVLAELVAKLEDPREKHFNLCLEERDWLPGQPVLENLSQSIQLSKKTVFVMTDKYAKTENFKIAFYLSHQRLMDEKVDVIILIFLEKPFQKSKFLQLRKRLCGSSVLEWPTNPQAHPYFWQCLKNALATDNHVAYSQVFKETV
Put plainly: HEK293-Blue-hTLR-7 cells assay. The note with it: HEK293-Blue-hTLR7 cells, SEAP reporter, R848 stimulation, 20 hrs. Type of assay: cell-based. From the text:
HEK293-Blue-hTLR-7 Cells Assay:
A stable HEK293-Blue-hTLR-7 cell line was purchased from InvivoGen (Cat. #: hkb-htlr7, San Diego, Calif., USA). These cells were originally designed for studying the stimulation of human TLR7 by monitoring the activation of NF-κB. A SEAP (secreted embryonic alkaline phosphatase) reporter gene was placed under the control of the IFN-β minimal promoter fused to five NF-κB and AP-1-binding sites. The SEAP was induced by activating NF-κB and AP-1 via stimulating HEK-Blue hTLR7 cells with TLR7 ligands. Therefore the reporter expression was declined by TLR7 antagonist under the stimulation of a ligand, such as R848 (Resiquimod), for incubation of 20 hrs. The cell culture supernatant SEAP reporter activity was determined using QUANTI-Blue™ kit (Cat. #: rep-qb1, Invivogen, San Diego, Ca, USA) at a wavelength of 640 nm, a detection medium that turns purple or blue in the presence of alkaline phosphatase.
HEK293-Blue-hTLR7 cells were incubated at a density of 250,000˜450,000 cells/mL in a volume of 170 μL in a 96-well plate in Dulbecco's Modified Eagle's medium (DMEM) containing 4.5 g/L glucose, 50 U/mL penicillin, […], […], 2 mM L-glutamine, 10% (v/v) heat-inactivated fetal bovine serum with addition of 20 sL test compound in a serial dilution in the presence of final DMSO at 1% and 10 μL of 20 uM R848 in above DMEM, perform incubation under 37° C. in a CO2 incubator for 20 hrs. Then 20 μL of the supernatant from each well was incubated with 180 sL Quanti-blue substrate solution at 37° C. for 2 hrs and the absorbance was read at 620-655 nm using a spectrophotometer. The signalling pathway that TLR7 activation leads to downstream NF-κB activation has been widely accepted, and therefore similar reporter assay was modified for evaluating TLR7 antagonist.
A word on the IC50: it is the concentration that gives 50% inhibition. Take `N#Cc1ccc(N2CC(C(=O)NC[C@H]3CNCCO3)C3(CC3)C2)c2nccnc12` (single isomer, unassigned) [Example 70A]: the IC50 was 19 nM. The value for `N#Cc1ccc(N2CC(C(=O)NC[C@@H]3CNCCO3)C3(CC3)C2)c2nccnc12` (single isomer, unassigned) [Example 71B] was 202 nM; that for `CN1CCC(NC(=O)C2CN(c3ccc(C(F)(F)F)c4nccnc34)CC23CC3)CC1` (stereo not shown) [Example 11, N-(1-methyl-4-piperidyl)-5-[8-(trifluoromethyl)quinoxalin-5-yl]-5-azaspiro[2.4]heptane-7-carboxamide] was 13 nM; that for `CN1CC(NC(=O)C2CN(c3ccc(C(F)(F)F)c4nccnc34)CC23CC3)C2(CC2)C1` (stereo not shown) [Example 20, N-(5-methyl-5-azaspiro[2.4]heptan-7-yl)-5-[8-(trifluoromethyl)quinoxalin-5-yl]-5-azaspiro[2.4]heptane-7-carboxamide] was 25 nM.

Molecule `C[C@@H]1CN(c2ccc(C#N)c3ncccc23)C[C@H]1C(=O)N1CCC2(CCNCC2)CC1` (relative stereo) [Example 32, Trans-5-[3-(3,9-diazaspiro[5.5]undecane-3-carbonyl)-4-methyl-pyrrolidin-1-yl]quinoline-8-carbonitrile] had an IC50 of 44 nM. The value for `C[C@H]1CN(c2ccc(C(F)(F)F)c3nccnc23)C[C@@H]1C(=O)NC1CCN(C)CC1` [Example 5, (3R,4R)-4-methyl-N-(1-methyl-4-piperidyl)-1-[8-(trifluoromethyl)quinoxalin-5-yl]pyrrolidine-3-carboxamide] was 8 nM; that for `C[C@@H]1CN(c2ccc(C#N)c3ncccc23)C[C@H]1C(=O)N[C@H]1CNC[C@H]1F` [Example 56, Trans-1-(8-cyano-5-quinolyl)-N-[(3S,4R)-4-fluoropyrrolidin-3-yl]-4-methyl-pyrrolidine-3-carboxamide] was 282 nM. The value for `C[C@H]1CN(c2ccc(C#N)c3nccnc23)C[C@@H]1C(=O)NC1CCN(C2CCNCC2)CC1` [Example 60, (3R,4R)-1-(8-cyanoquinoxalin-5-yl)-4-methyl-N-[1-(4-piperidyl)-4-piperidyl]pyrrolidine-3-carboxamide] was 492 nM; that for `C[C@H]1CN(c2ccc([N+](=O)[O-])c3ncccc23)C[C@@H]1C(=O)NC1CCN(C)CC1` [Example 27, (3R,4R)-4-Methyl-N-(1-methyl-4-piperidyl)-1-(8-nitro-5-quinolyl)pyrrolidine-3-carboxamide] was 38 nM; that for `NC1CC(NC(=O)C2CN(c3ccc(C(F)(F)F)c4nccnc34)CC23CC3)C1` (stereo not shown) [Example 38, N-(3-Aminocyclobutyl)-5-[8-(trifluoromethyl)quinoxalin-5-yl]-5-azaspiro[2.4]heptane-7-carboxamide] was 59 nM. The value for `O=C(NC1C2CCCC1CNC2)C1CN(c2ccc(C(F)(F)F)c3nccnc23)CC12CC2` (stereo not shown) [Example 8, N-(3-azabicyclo[3.3.1]nonan-9-yl)-5-[8-(trifluoromethyl)quinoxalin-5-yl]-5-azaspiro[2.4]heptane-7-carboxamide] was 10 nM; that for `N#Cc1ccc(N2CC(C(=O)NC3CCCNCC3)C(C(F)(F)F)C2)c2cccnc12` (single isomer, unassigned) [Example 30A, N-(azepan-4-yl)-1-(8-cyano-5-quinolyl)-4-(trifluoromethyl)pyrrolidine-3-carboxamide] was 41 nM; that for `NC1CC2(C1)CC(NC(=O)C1CN(c3ccc(C(F)(F)F)c4nccnc34)CC13CC3)C2` (stereo not shown) [Example 22, N-(6-aminospiro[3.3]heptan-2-yl)-5-[8-(trifluoromethyl)quinoxalin-5-yl]-5-azaspiro[2.4]heptane-7-carboxamide] was 28 nM. The molecule `Cc1ccc(N2C[C@H](C(=O)NC3CCN(C)CC3)[C@@H](C)C2)c2nccnc12` [Example 33, (3R,4R)-4-Methyl-N-(1-methyl-4-piperidyl)-1-(8-methylquinoxalin-5-yl)pyrrolidine-3-carboxamide] showed an IC50 of 45 nM.

As to `O=C(NC1CC2(CCNCC2)C1)C1CN(c2ccc(C(F)(F)F)c3nccnc23)CC12CC2` (stereo not shown) [Example 34, N-(7-azaspiro[3.5]nonan-2-yl)-5-[8-(trifluoromethyl)quinoxalin-5-yl]-5-azaspiro[2.4]heptane-7-carboxamide], the IC50 came to 46 nM. For the molecule `CN1CCC(NC(=O)C2CN(c3ccc(C#N)c4ncccc34)CC23CC3)CC1` (single isomer, unassigned) [Example 41A, 5-(8-Cyano-5-quinolyl)-N-(1-methyl-4-piperidyl)-5-azaspiro[2.4]heptane-7-carboxamide], the IC50 was 79 nM.

As for `C[C@@H]1CN(c2ccc(C#N)c3ncccc23)C[C@H]1C(=O)N1CCC2(CCNC2)C1` (relative stereo) [Example 53, Trans-5-[3-(2,7-diazaspiro[4.4]nonane-2-carbonyl)-4-methyl-pyrrolidin-1-yl]quinoline-8-carbonitrile], the IC50 is 226 nM. The value for `CN1CCC(NC(=O)C2CN(c3ccc(C#N)c4ncccc34)CC2C(F)(F)F)CC1` (stereo not shown) [Example 18, 1-(8-Cyano-5-quinolyl)-N-(1-methyl-4-piperidyl)-4-(trifluoromethyl)pyrrolidine-3-carboxamide] was 23 nM; that for `O=C(NC1CC2COCC(C1)N2)C1CN(c2ccc(C(F)(F)F)c3nccnc23)CC12CC2` (stereo not shown) [Example 6, N-(3-oxa-9-azabicyclo[3.3.1]nonan-7-yl)-5-[8-(trifluoromethyl)quinoxalin-5-yl]-5-azaspiro[2.4]heptane-7-carboxamide] was 9 nM; that for `N[C@H]1CC[C@H](NC(=O)C2CN(c3ccc(C(F)(F)F)c4nccnc34)CC23CC3)CC1` (stereo partly shown) [Example 24, N-(4-aminocyclohexyl)-5-[8-(trifluoromethyl)quinoxalin-5-yl]-5-azaspiro[2.4]heptane-7-carboxamide] was 29 nM. With `CN1CCC(NC(=O)[C@@H]2CN(c3ccc(C#N)c4ncccc34)C[C@H]2C2CC2)CC1` (relative stereo) [Example 14, Trans-1-(8-cyano-5-quinolyl)-4-cyclopropyl-N-(1-methyl-4-piperidyl)pyrrolidine-3-carboxamide], the IC50 amounted to 20 nM. `CN1CCC(NC(=O)[C@@H]2CN(c3ccc(C#N)c4ncccc34)C[C@H]2C(F)F)CC1` (relative stereo) [Example 40, Trans-1-(8-cyano-5-quinolyl)-4-(difluoromethyl)-N-(1-methyl-4-piperidyl)pyrrolidine-3-carboxamide] had an IC50 of 79 nM. The value for `CC[C@@H]1CN(c2ccc(C#N)c3ncccc23)C[C@H]1C(=O)NC1CCN(C)CC1` (relative stereo) [Example 29, Trans-1-(8-cyano-5-quinolyl)-4-ethyl-N-(1-methyl-4-piperidyl)pyrrolidine-3-carboxamide] was 40 nM; that for `O=C(NC1CC2CCCC(C1)N2)C1CN(c2ccc(C(F)(F)F)c3nccnc23)CC12CC2` (stereo not shown) [Example 10, N-(9-azabicyclo[3.3.1]nonan-3-yl)-5-[8-(trifluoromethyl)quinoxalin-5-yl]-5-azaspiro[2.4]heptane-7-carboxamide] was 12 nM. Molecule `N#Cc1ccc(N2CC(C(=O)NC[C@H]3CNCCO3)C3(CC3)C2)c2nccnc12` (single isomer, unassigned) [Example 70B] displayed an IC50 of 233 nM.

The record behind these values is patent US20210323977A1, “PYRROLIDINYL AMIDE COMPOUNDS FOR THE TREATMENT OF AUTOIMMUNE DISEASE” (Hoffmann-La Roche Inc., priority 2018, published 2021).
